This is an account of results in US20180193453A1, “TREATMENT-RESISTANCE REDUCING AGENT FOR TREATMENT-RESISTANT CANCER” (NATIONAL UNIVERSITY CORPORATION HOKKAIDO UNIVERSITY, priority 2015, published 2018).

The subject of one assay is A549-DR cells. The assay is described as follows: MTT cell viability assay with or without DOX. Format: cell-based, human. The conditions noted are these: DOX 1 μM, 72 hours, FIG. 7 upper. The procedure:
Human lung adenocarcinoma cell line A549 was obtained from the American Type Cell Culture (ATCC, USA). Cell culture was carried out at 37° C. in an atmosphere of 5% CO2 using Dulbecco's Modified Eagle's Medium (DMEM) (SIGMA) supplemented with fetal bovine serum (at a final concentration of 10%), penicillin (at a final concentration of 100 U/mL) and streptomycin (at a final concentration of 100 μg/mL). A549 cells were cultured at 37° C. in an atmosphere of 5% CO2, in DMEM in which the DOX concentration was increased stepwise from 0.01 to 1 μM, and then cells acquiring DOX resistance were selected to generate a DOX-resistant A549 cell line (A549-DR). The resultant A549-DR cells maintained their drug resistance by exposure to 1 μM DOX.
A549-DS, A549-DR, and A549-DR-IL-34-KO cells were cultured in DMEM medium with or without DOX (at a final concentration of 1 μM). After 72 hours of culturing, an MTT assay was performed (using a cell proliferation determination kit, available from Roche Applied) to determine the viability of cells. Similarly, A549-DR cells were cultured in a medium with or without DOX in which an anti-IL-34 neutralizing antibody was added at a final concentration of 0.01 to 10 μg/mL, and the viability of cells was determined in a similar way.
For orientation: Tetrazolium assays rely on reduction of a dye to a coloured formazan, in cell work by metabolically active cells.

A further assay relates to A549-DR-IL-34-KO cells. The assay is described as follows: MTT cell viability assay with or without DOX. Format: cell-based, human. The conditions noted are these: DOX 1 μM, 72 hours, FIG. 7 upper.
Another assay has as its system A549-DR tumor. Description: Tumor size in humanized NOG mice with DOX administration. The note with it: DOX 10 mg/kg/mouse intravenously, twice a week, 4 times, vs PBS, FIG. 8. The assay is classed as in vivo.
Another assay concerns A549-DR-IL-34-KO tumor. Described as above. Format: in vivo. The conditions noted are these: DOX 10 mg/kg/mouse intravenously, twice a week, 4 times, vs PBS, FIG. 8.

For the molecule `COc1cccc2c1C(=O)c1c(O)c3c(c(O)c1C2=O)C[C@@](O)(C(=O)CO)C[C@@H]3O[C@H]1C[C@H](N)[C@H](O)[C@H](C)O1` [DOX, doxorubicin], the viability of cells entry in the assay on A549-DR cells is “did not have a decreased viability”. For the same molecule, in the assay with A549-DR-IL-34-KO cells, the “viability of cells (sensitivity to DOX)” value was “restored the sensitivity to DOX”. For the same molecule, the tumor size result with A549-DR tumor is listed as “did not change greatly”; with A549-DR-IL-34-KO tumor, “significantly decreased”.
